Results as given in BigSolDB 2.1.

COC(=O)c1nc[nH]n1
Details | solubility (mole fraction)
in 2-pentanone, 278.15 K | 0.000862
in 2-pentanone, 283.35 K | 0.000994
in 2-pentanone, 288.05 K | 0.0012
in 2-pentanone, 292.55 K | 0.00136
in 2-pentanone, 297.95 K | 0.00165
in 2-pentanone, 302.65 K | 0.00192
in 2-pentanone, 307.35 K | 0.00222
in 2-pentanone, 313.05 K | 0.00253
in 2-pentanone, 317.35 K | 0.00285
in 3-pentanone, 278.25 K | 0.000784
in 3-pentanone, 283.35 K | 0.000902
in 3-pentanone, 288.05 K | 0.00107
in 3-pentanone, 292.55 K | 0.00127
in 3-pentanone, 298.35 K | 0.00143
in 3-pentanone, 303.05 K | 0.00172
in 3-pentanone, 307.35 K | 0.00191
in 3-pentanone, 312.85 K | 0.00224
in 3-pentanone, 317.15 K | 0.00243
in MIBK, 278.25 K | 0.000526
in MIBK, 283.35 K | 0.000657
in MIBK, 288.05 K | 0.000734
in MIBK, 292.55 K | 0.000852
in MIBK, 298.35 K | 0.00111
in MIBK, 303.05 K | 0.00127
in MIBK, 307.35 K | 0.00148
in MIBK, 312.55 K | 0.00172
in MIBK, 317.05 K | 0.00197
in THF, 278.15 K | 0.00105
in THF, 283.05 K | 0.00137
in THF, 289.05 K | 0.00196
in THF, 293.25 K | 0.00244
in THF, 298.35 K | 0.00323
in THF, 303.05 K | 0.00419
in THF, 307.35 K | 0.00517
in THF, 313.85 K | 0.00714
in THF, 317.95 K | 0.00875
in acetone, 278.15 K | 0.00153
in acetone, 283.35 K | 0.00181
in acetone, 288.05 K | 0.00203
in acetone, 292.55 K | 0.00232
in acetone, 297.95 K | 0.00286
in acetone, 302.65 K | 0.0033
in acetone, 307.35 K | 0.00382
in acetone, 313.25 K | 0.00458
in acetone, 317.55 K | 0.00508
in acetonitrile, 278.65 K | 0.000843
in acetonitrile, 283.45 K | 0.000993
in acetonitrile, 288.25 K | 0.0012
in acetonitrile, 292.85 K | 0.00142
in acetonitrile, 297.05 K | 0.00168
in acetonitrile, 301.85 K | 0.00206
in acetonitrile, 307.35 K | 0.00245
in acetonitrile, 313.25 K | 0.00305
in acetonitrile, 318.95 K | 0.00384
in cyclohexanone, 278.05 K | 0.00557
in cyclohexanone, 282.95 K | 0.00583
in cyclohexanone, 289.05 K | 0.00622
in cyclohexanone, 293.25 K | 0.00657
in cyclohexanone, 298.35 K | 0.00687
in cyclohexanone, 303.05 K | 0.0075
in cyclohexanone, 307.35 K | 0.00814
in cyclohexanone, 313.75 K | 0.00888
in cyclohexanone, 317.85 K | 0.00962
in cyclopentanone, 277.95 K | 0.00156
in cyclopentanone, 282.85 K | 0.0018
in cyclopentanone, 288.95 K | 0.00219
in cyclopentanone, 293.25 K | 0.00251
in cyclopentanone, 298.25 K | 0.00303
in cyclopentanone, 303.05 K | 0.00356
in cyclopentanone, 307.25 K | 0.00417
in cyclopentanone, 313.65 K | 0.0053
in cyclopentanone, 317.65 K | 0.00632
in ethanol, 278.45 K | 0.00142
in ethanol, 283.15 K | 0.0016
in ethanol, 288.05 K | 0.00204
in ethanol, 292.65 K | 0.00254
in ethanol, 297.25 K | 0.00305
in ethanol, 301.65 K | 0.00378
in ethanol, 306.95 K | 0.00464
in ethanol, 312.65 K | 0.00602
in ethanol, 318.05 K | 0.00759
in isobutanol, 278.65 K | 0.00103
in isobutanol, 283.35 K | 0.00116
in isobutanol, 288.25 K | 0.00141
in isobutanol, 292.85 K | 0.00182
in isobutanol, 297.05 K | 0.00222
in isobutanol, 301.85 K | 0.00273
in isobutanol, 307.15 K | 0.00337
in isobutanol, 313.15 K | 0.00439
in isobutanol, 318.65 K | 0.00581
in isopropanol, 278.55 K | 0.000966
in isopropanol, 283.25 K | 0.00119
in isopropanol, 288.15 K | 0.00146
in isopropanol, 292.75 K | 0.00188
in isopropanol, 297.15 K | 0.00235
in isopropanol, 301.75 K | 0.00297
in isopropanol, 307.05 K | 0.00389
in isopropanol, 312.85 K | 0.00511
in isopropanol, 318.35 K | 0.00693
in methanol, 278.45 K | 0.00294
in methanol, 283.15 K | 0.0033
in methanol, 288.05 K | 0.00385
in methanol, 292.65 K | 0.00467
in methanol, 297.25 K | 0.00537
in methanol, 301.65 K | 0.00645
in methanol, 306.95 K | 0.00768
in methanol, 312.55 K | 0.00952
in methanol, 317.85 K | 0.0115
in n-butanol, 278.55 K | 0.00199
in n-butanol, 283.35 K | 0.00217
in n-butanol, 288.15 K | 0.00246
in n-butanol, 292.75 K | 0.00279
in n-butanol, 297.15 K | 0.00326
in n-butanol, 301.75 K | 0.00378
in n-butanol, 307.15 K | 0.00476
in n-butanol, 312.95 K | 0.00613
in n-butanol, 318.45 K | 0.00818
in n-propanol, 278.55 K | 0.00137
in n-propanol, 283.25 K | 0.00153
in n-propanol, 288.15 K | 0.00183
in n-propanol, 292.75 K | 0.00227
in n-propanol, 297.15 K | 0.00264
in n-propanol, 301.75 K | 0.00325
in n-propanol, 307.05 K | 0.00398
in n-propanol, 312.75 K | 0.00532
in n-propanol, 318.15 K | 0.0069
